Source: patent publication US20160220510A1, “ANTIBIOTIC COMPOUNDS THAT INHIBIT BACTERIAL PROTEIN SYNTHESIS” (The Board of Regents of the University of Texas System, priority 2015, published 2016)
≈ marks a conversion by molar mass, not a printed value. Structures can show the parent of a compound that is named as a salt. Where two headings read alike, the source gives them in different places.

Experiments:
ribosome = assay: Determination of molecular target (ribosome by default); format: biochemical, Pseudomonas aeruginosa; settings: no accessory protein inhibited
Method: Nitrocellulose binding assays were used to determine inhibition of GDP exchange by EF-Tu as previously described in Bullard et al. “Effects of domain exchanges between Escherichia coli and mammalian mitochondrial EF-Tu on interactions with guanine nucleotides, aminoacyl-tRNA and ribosomes” 1999, Biochim. Biophys. Acta 1446:102-114, which is incorporated herein by reference, with the exception that the enzyme (1 μM) was pre-incubated with 132 μM compound for 15 min prior to the addition of [^3H]GDP. EF-Ts stimulates the exchange of GDP bound by EF-Tu. The ability of compounds to inhibit EF-Ts stimulation of GDP exchange by EF-Tu was measured in assays as described for EF-Tu/GDP exchange with the exceptions that EF-Ts was present at 0.05 μM and the time for the reaction was decreased from 30 min to 30 sec.
Assays for ribosome-dependent GTP hydrolysis by EF-G were carried out in 50 μl reactions containing: 50 mM Tris-HCl (pH 7.5), 10 mM MgCl2, 70 mM NH4Cl, 1 mM dithiothreitol (DTT), 1.8 mM GTP, 0.4 μM P. aeruginosa ribosomes and 0.2 μM EF-G. Final concentrations of compounds in the assays were 132 μM. The amount of GTPase activity was determined by measurement of the amount of Pi liberated using a colorimetric GTPase assay kit (Novus Biologicals) per manufacturer's directions.

[1] = test system: P. aeruginosa aminoacylation/translation (A/T) protein synthesis system (ribosomes, PheRS, EF-Tu, EF-Ts, EF-G); assay: aminoacylation/translation (A/T) scintillation proximity assay; format: biochemical, Pseudomonas aeruginosa; settings: all P. aeruginosa components
Method: A scintillation proximity assay (SPA) was developed using P. aeruginosa components for the aminoacylation/translation (A/T) assay as described in Ribble et al. The complete assay (50 μl) contained 50 mM Tris-HCl (pH 7.5), 25 mM KCl, 10 mM MgCl2, 0.03 mM spermine, 1.5 mM ATP, 0.5 mM GTP, 40 μM [^3H]Phenylalanine (Phe) (75 cpm/pmol) and 0.3 mg/ml polyU mRNA. To maintain constant levels of ATP and GTP the assay contained a nucleotide regeneration system composed of 4 mM phosphoenolpyruvate (PEP) and 0.025 Units/μl pyruvate kinase (PK). The concentration of ribosomes and proteins in the assay were as follows: ribosome (0.2 μM), PheRS (0.1 μM), EF-Tu (1 μM), EF-Ts (0.05 μM) and EF-G (0.2 μM). These concentrations were arrived at through sequential rounds of optimization: each concentration represents the concentration just below the saturation point for each component of the reaction in the titration.
The screening reactions were carried out in 96 well microtiter plates (Costar). Test compounds were equilibrated by addition of 33 μl of the protein/substrate mix (without tRNA) to 2 μl of chemical compound (3.2 mM) dissolved in 100% DMSO. […] Reactions were stopped by the addition of 5 μl of 0.5 M EDTA. 200 μg of SPA beads (RNA Binding Beads (YSI), Perkin Elmer) in 150 μl of 300 mM citrate buffer (pH 6.2) were added. The plates were analyzed using a 1450 Microbeta (Jet) liquid scintillation and luminescence counter (Wallac). Assays to determine IC50 values were as described above with the test compounds serially diluted from 200 μM to 0.4 μM. The concentration ranges of antibiotics as controls were as follows: spiramycin (0.02 μM to 20.0 μM), tylosin (0.02 μM to 20.0 μM), and fusidic acid (4 μM to 512 μM).

P. aeruginosa PheRS = P. aeruginosa PheRS (Pseudomonas aeruginosa, UniProt Q9I0A3+Q9I0A4); assay: PheRS tRNA aminoacylation SPA assay; format: biochemical; settings: for Inhibition of Phenylalanyl-tRNA synthetase (PheRS), target found: 132 μM compound
Method: SPA assays to determine inhibition of PheRS by chemical compounds were as described in Bullard et al. “Expression and characterization of a human mitochondrial phenylalanyl-tRNA synthetase” 1999, J. Mol. Biol. 288:567-577, which his incorporated herein by reference and in Ribble et al. Exceptions were that the enzyme mix was pre-incubated with 132 μM compound for 15 min prior to addition of tRNA. The reactions were stopped by the addition of 5 μl of 0.5 M EDTA. 400 μg of SPA beads (Ysi poly-L-lysine coated beads, Perkin Elmer) in 150 μl of 300 mM citrate buffer (pH 2.0) were added and the plates were analyzed as above.

E. coli (ATCC 25922) = assay: Broth microdilution MIC; format: cell-based; settings: Escherichia coli
E. coli tolC mutant = assay: Broth microdilution MIC; format: cell-based; settings: Escherichia coli, read-out: MIC E. coli tolC (efflux)
[2] = test system: Enterococcus faecalis (ATCC 29212); assay: Broth microdilution MIC; format: cell-based
[3] = test system: Haemophilus influenzae (ATCC 49766); assay: Broth microdilution MIC; format: cell-based; settings: ATCC49766
[4] = test system: Moraxella catarrhalis (ATCC 25238); assay: Broth microdilution MIC; format: cell-based; settings: ATCC25238
[5] = test system: Pseudomonas aeruginosa (ATCC 47085); assay: Broth microdilution MIC; format: cell-based
[6] = test system: Pseudomonas aeruginosa hypersensitive strain (ATCC 35151); assay: Broth microdilution MIC; format: cell-based; settings: ATCC35151, read-out: MIC P. aeruginosa (hypersensitive)
[7] = test system: Staphylococcus aureus (ATCC 29213); assay: Broth microdilution MIC; format: cell-based; settings: ATCC29213, read-out: MIC S. aureus
[8] = test system: Streptococcus pneumonia (ATCC 49619); assay: Broth microdilution MIC; format: cell-based; settings: Streptococcus pneumoniae
[9] = test system: Gram (+) bacteria (E. faecalis or S. aureus); assay: Time-kill experiments, Gram (+); settings: four-times the MIC, 0 to 24 hours
Method: (§1) Time-kill experiments were performed according to the CLSI guidelines M26-A. H. influenzae (ATCC 49766), E. faecalis ATCC 29212, and Staphylococcus aureus (ATCC 29213) were from the American Type Culture Collection (Manassas, Va.). Growth media were Brain Heart Infusion and Trypticase Soy Broth from Remel (Lenexa, Kans.). For the experiments, 10 mL of broth medium was inoculated with 0.1 mL of a fresh overnight culture and grown at 35° C. with shaking (200 rpm) for 2-3 hours. Pre-warmed flasks containing 10 mL of medium alone or 10 mL of medium containing a test compound at 4×MIC were then inoculated with 0.1 mL of the exponentially growing cultures. Samples were removed at 0, 2, 4, 6, and 24 h, and serial dilutions were plated on blood agar to allow for colony enumeration and calculation of the live cell density.
(§2) Time-kill experiments were performed according to the CLSI guideline M26-A to determine the efficacy against both Gram (+) and a Gram (−) organisms. […] The Gram (+) bacteria used was either E. faecalis or S. aureus, while the Gram (−) bacteria was H. influenzae. […] The compounds were tested in these assays at four-times the MIC and between 0 and 24 hours.

H. influenzae = assay: Time-kill experiments, Gram (−); settings: four-times the MIC, 0 to 24 hours
Method: as §1, §2

[10] = ATCC25922, ATCC 25922, read-out: MIC E. coli
[11] = ATCC29212, ATCC 29212, read-out: MIC E. faecalis
[12] = ATCC47085, ATCC 47085, read-out: MIC P. aeruginosa
[13] = ATCC49619, ATCC 49619, read-out: MIC S. pneumo

Sequence of P. aeruginosa PheRS (Q9I0A3 whole entry): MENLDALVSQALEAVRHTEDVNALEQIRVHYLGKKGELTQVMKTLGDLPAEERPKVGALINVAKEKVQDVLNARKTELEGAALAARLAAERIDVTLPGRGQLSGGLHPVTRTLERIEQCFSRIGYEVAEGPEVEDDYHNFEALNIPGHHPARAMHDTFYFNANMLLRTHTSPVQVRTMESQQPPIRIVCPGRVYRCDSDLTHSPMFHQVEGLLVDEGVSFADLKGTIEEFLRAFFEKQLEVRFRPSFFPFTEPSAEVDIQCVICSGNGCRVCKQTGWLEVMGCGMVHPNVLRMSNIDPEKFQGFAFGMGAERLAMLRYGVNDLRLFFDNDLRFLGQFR
Sequence of P. aeruginosa PheRS (Q9I0A4 whole entry): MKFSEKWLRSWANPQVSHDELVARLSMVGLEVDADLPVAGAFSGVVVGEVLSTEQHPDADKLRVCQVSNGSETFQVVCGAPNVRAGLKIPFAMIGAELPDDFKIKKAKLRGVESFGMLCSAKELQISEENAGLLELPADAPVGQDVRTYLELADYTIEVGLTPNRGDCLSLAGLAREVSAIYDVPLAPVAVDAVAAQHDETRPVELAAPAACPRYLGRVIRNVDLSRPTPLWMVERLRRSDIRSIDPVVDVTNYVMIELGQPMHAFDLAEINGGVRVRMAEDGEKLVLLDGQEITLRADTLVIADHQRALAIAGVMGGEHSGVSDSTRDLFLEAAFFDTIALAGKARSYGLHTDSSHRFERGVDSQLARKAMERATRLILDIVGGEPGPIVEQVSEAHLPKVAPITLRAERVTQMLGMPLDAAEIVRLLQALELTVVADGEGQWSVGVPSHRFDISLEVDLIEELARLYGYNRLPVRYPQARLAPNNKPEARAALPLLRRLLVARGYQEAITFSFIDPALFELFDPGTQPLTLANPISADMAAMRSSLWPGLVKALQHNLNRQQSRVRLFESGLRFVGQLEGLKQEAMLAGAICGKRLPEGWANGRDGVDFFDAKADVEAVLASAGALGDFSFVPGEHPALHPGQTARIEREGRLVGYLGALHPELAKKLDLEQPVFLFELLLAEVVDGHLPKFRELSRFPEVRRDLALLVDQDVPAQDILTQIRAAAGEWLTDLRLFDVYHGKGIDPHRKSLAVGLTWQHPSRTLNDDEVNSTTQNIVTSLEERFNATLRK

Structure (SMILES)	Target found: ribosomal inhibitor (ribosome)	IC50 [1]	IC50 (P. aeruginosa PheRS)	Inhibition of Phenylalanyl-tRNA synthetase (PheRS), target found (P. aeruginosa PheRS)	MIC (E. coli (ATCC 25922); ATCC25922, read-out: MIC E. coli)	MIC (E. coli tolC mutant)	MIC ([2]; ATCC29212, read-out: MIC E. faecalis)	MIC [3]	MIC [4]	MIC ([5]; ATCC47085, read-out: MIC P. aeruginosa)	MIC [6]	MIC [7]	MIC ([8]; ATCC49619, read-out: MIC S. pneumo)	Time-kill mode of action against Gram (+) bacteria [9]	Time-kill mode of action against Gram (−) bacteria (H. influenzae)	MIC (E. coli (ATCC 25922); [10])	MIC [2, 11]	MIC [5, 12]	MIC [8, 13]
NC(N)=NN=C(/C=C/c1ccc([N+](=O)[O-])o1)/C=C/c1ccc([N+](=O)[O-])o1 [2-[1,5-bis(5-nitrofuran-2-yl)penta-1,4-dien-3-ylideneamino]guanidine hydrochloride]	ribosomal inhibitor																		
O=C(/C=C/c1ccccc1)c1ccc(O)cc1O [Class 1, (2E)-1-(2,4-Dihydroxyphenyl)-3-phenyl-2-propen-1-one]		33 µM	37 µM	inhibit	> 128 µg/mL	> 128 µg/mL	> 128 µg/mL	32 µg/mL (≈ 133 µM)	64 µg/mL (≈ 266 µM)	> 128 µg/mL	> 128 µg/mL	128 µg/mL (≈ 533 µM)	> 128 µg/mL	bactericidal	bactericidal				
COC(=O)c1c(C)c2c(c(C)c1O)OC(=O)c1c(C)c(Cl)c(O)c(Cl)c1O2 [Class 2, Methyl 2,4-dichloro-3,8-dihydroxy-1,6,9-trimethyl-11-oxo-11H-dibenzo[b,e][1,4]dioxepine-7-carboxylate]		59 µM	9.8 µM	inhibit		16 µg/mL (≈ 38.7 µM)		32 µg/mL (≈ 77.4 µM)	1 µg/mL (≈ 2.42 µM)		8 µg/mL (≈ 19.4 µM)	128 µg/mL (≈ 310 µM)		bacteriostatic	bacteriostatic	> 128 µg/mL	8 µg/mL (≈ 19.4 µM)	128 µg/mL (≈ 310 µM)	64 µg/mL (≈ 155 µM)
O=C(N/N=C/c1ccc([N+](=O)[O-])o1)c1cc([N+](=O)[O-])cc([N+](=O)[O-])c1O [Class 4, N-[(1E)-2-(5-nitro(2-furyl))-1-azavinyl](2-hydroxy-3,5-dinitrophenyl)carboxamide]		50.2 µM	40 µM			2 µg/mL (≈ 5.48 µM)		32 µg/mL (≈ 87.6 µM)	32 µg/mL (≈ 87.6 µM)		32 µg/mL (≈ 87.6 µM)	32 µg/mL (≈ 87.6 µM)		bacteriostatic	bacteriostatic	> 128 µg/mL	128 µg/mL (≈ 350 µM)	32 µg/mL (≈ 87.6 µM)	128 µg/mL (≈ 350 µM)
NC(N)=NN=C(/C=C/c1ccc([N+](=O)[O-])o1)/C=C/c1ccc([N+](=O)[O-])o1 [Class 5, 2-[1,5-bis(5-nitrofuran-2-yl)penta-1,4-dien-3-ylideneamino]guanidine hydrochloride]		27.5 µM				2 µg/mL		16 µg/mL	64 µg/mL		4 µg/mL	16 µg/mL		bactericidal	bactericidal	> 128 µg/mL	128 µg/mL	128 µg/mL	32 µg/mL
Cc1cc(C)nc(NC(=N)Nc2ccc(OCc3ccc(Cl)cc3)cc2)n1 [Class 6, (4,6-dimethylpyrimidin-2-yl)[({4-[(4-chlorophenyl)methoxy]phenyl}amino)iminomethyl]amine]	ribosomal inhibitor	25.8 µM				16 µg/mL (≈ 41.9 µM)		32 µg/mL (≈ 83.8 µM)	64 µg/mL (≈ 168 µM)		16 µg/mL (≈ 41.9 µM)	32 µg/mL (≈ 83.8 µM)		bactericidal	bactericidal	64 µg/mL (≈ 168 µM)	16 µg/mL (≈ 41.9 µM)	64 µg/mL (≈ 168 µM)	32 µg/mL (≈ 83.8 µM)
O=C(N/N=C/c1ccc([N+](=O)[O-])o1)c1cc([N+](=O)[O-])cc([N+](=O)[O-])c1O [N-[(1E)-2-(5-nitro(2-furyl))-1-azavinyl](2-hydroxy-3,5-dinitrophenyl)carboxamide]				inhibit															
